Results as given in the supplement of paper PMC10307832.

Key:
Assay in all cases: relative viability (nuclei count vs DMSO), 5 days (fraction); higher = more cells survive
[1] = compound: N#CC[C@H](C1CCCC1)n1cc(-c2ncnc3[nH]ccc23)cn1 [Ruxolitinib] + O=C(CCCCCCC(=O)Nc1ccccc1)NO [Vorinostat] (partner 1 µM)
Outline: (§1)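 One day after seeding in 1536-well plates, lung cancer cell lines were dosed by pin tool. Dosing was either single-drug or a fixed anchor-drug dose plus five library-drug doses (not always all listed) in √10 steps. After 5 days, nuclei were stained in one fix-and-stain step and counted on 4× images, and relative viability is the nuclei count of treated wells over that of vehicle wells, given as the median of duplicate plates.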

[2] = compound: CS(=O)(=O)c1ccc(-c2cnc(N)c(C(=O)Nc3ccccc3)n2)cc1 [VE-821] + CCNC(=O)c1noc(-c2cc(C(C)C)c(O)cc2O)c1-c1ccc(CN2CCOCC2)cc1 [Luminespib] (partner 0.01 µM)
Outline: as §1

[3] = compound: CS(=O)(=O)c1ccc(C(=O)Nc2ccc(Cl)c(-c3ccccn3)c2)c(Cl)c1 [Vismodegib] + COc1cccc2cc(-c3nc([C@H]4CC[C@H](C(=O)O)CC4)n4ncnc(N)c34)[nH]c12 [OSI-027] (partner 0.5 µM)
Outline: as §1

[4] = compound: CS(=O)(=O)c1ccc(-c2cnc(N)c(C(=O)Nc3ccccc3)n2)cc1 [VE-821] + Cc1nc(Nc2ncc(C(=O)Nc3c(C)cccc3Cl)s2)cc(N2CCN(CCO)CC2)n1 [Dasatinib] (partner 0.075 µM)
Outline: as §1

Cell Line	relative viability ([1]; first compound 0.08 µM)	relative viability ([1]; first compound 0.253 µM)	relative viability ([1]; first compound 0.8 µM)	relative viability ([1]; first compound 2.53 µM)	relative viability ([1]; first compound 8 µM)	relative viability ([2]; first compound 0.08 µM)	relative viability ([2]; first compound 0.253 µM)	relative viability ([2]; first compound 0.8 µM)	relative viability ([2]; first compound 2.53 µM)	relative viability ([2]; first compound 8 µM)	relative viability ([3]; first compound 0.08 µM)	relative viability ([3]; first compound 0.253 µM)	relative viability ([3]; first compound 0.8 µM)	relative viability ([3]; first compound 2.53 µM)	relative viability ([3]; first compound 8 µM)	relative viability ([4]; first compound 0.08 µM)	relative viability ([4]; first compound 0.253 µM)	relative viability ([4]; first compound 0.8 µM)	relative viability ([4]; first compound 2.53 µM)	relative viability ([4]; first compound 8 µM)
201T	1.12	1.16	1.21	1.25	1.17	1.06	1.03	1.06	1.06	0.934	0.834	0.741	0.733	0.731	0.747	0.588	0.529	0.476	0.434	0.44
A-427	0.906	0.879	0.9	0.974	0.841	1.08	1	0.69	0.745	0.3	0.471	0.464	0.446	0.405	0.484	0.793	0.647	0.657	0.652	0.423
ABC-1		1.18	1.4	0.825	0.907	0.614	0.401	0.469	0.49	0.328	0.638	0.392	0.581	0.403	0.52	0.554	0.519	0.614	0.517	0.439
BEN	0.524	0.557	0.653	0.519	0.586	0.414	0.374	0.376	0.344	0.322	0.336	0.308	0.272	0.294	0.311	0.31	0.337	0.282	0.291	0.364
CAL-12T	0.86	0.693	0.848	0.653	0.69	0.655	0.363	0.4	0.327	0.137	0.776	0.462	0.774	0.636	0.654	0.499	0.327	0.372	0.443	0.243
COR-L23	0.579	0.347	0.463	0.403	0.287	0.835	0.651	0.633	0.342	0.446	0.753	0.743	0.742	0.793	0.751	0.678	0.48	0.545	0.536	0.395
COR-L 105		0.721	0.785	0.488	0.615	0.692	0.771	0.51	0.632	0.524	0.683	0.63	0.771	0.739	0.658	0.327	0.313	0.276	0.344	0.255
ChaGo-K-1	0.771	0.764	0.707	0.62	0.637	0.537	0.481	0.445	0.582	0.312	0.663	0.546	0.554	0.619	0.516	0.553	0.525	0.582	0.62	0.418
EKVX	0.57	0.744	0.719	0.628	0.588	0.96	0.77	0.763	0.939	0.815	0.677	0.67	0.676	0.715	0.731	0.531	0.483	0.449	0.45	0.328
EMC-BAC-2	0.412	0.432	0.443	0.621	0.279	1.36	1.15	1.09	1.11	0.931	0.423	0.378	0.419	0.394	0.395	0.349	0.316	0.346	0.342	0.275
EPLC-272H	0.586	0.447	0.463	0.249	0.337	0.265	0.301	0.179	0.288	0.221	0.291	0.273	0.279	0.278	0.275	0.341	0.325	0.418	0.41	0.219
H3255		0.9	0.892	0.791	0.382	0.903	0.782	0.78	0.915	0.973	0.58	0.634	0.701	0.579	0.522	0.364	0.403	0.321	0.383	0.328
HARA	0.594	0.576	0.566	0.488	0.512	0.956	0.836	0.579	0.695	0.448	0.702	0.47	0.529	0.492	0.466	0.271	0.221	0.315	0.254	0.253
HCC-15	0.903	0.862	0.864	0.741	0.776	0.37	0.175	0.517	0.422	0.315	0.753	0.664	0.654	0.738	0.631	0.704	0.595	0.6	0.721	0.495
HCC-44	1.11	1.06	1.03	1.04	1.05	1.34	0.97	0.908	1.14	0.807	0.532	0.482	0.453	0.526	0.611					
HCC-78	0.412	0.455	0.429	0.439	0.395						0.372	0.371	0.382	0.347	0.347	0.453	0.281	0.376	0.432	0.33
HCC-366	0.34	0.321	0.423	0.192	0.167						1.32	0.888	0.77	0.929	0.775	0.67	0.633	0.516	0.255	0.0491
HCC-827		0.871	0.767	0.751	0.84	0.599	0.686	0.277	0.696	0.489	0.759	0.708	0.726	0.767	0.789	0.322	0.294	0.289	0.421	0.262

Cell Line	relative viability ([1]; first compound 0.08 µM)	relative viability ([1]; first compound 0.253 µM)	relative viability ([1]; first compound 0.8 µM)	relative viability ([1]; first compound 2.53 µM)	relative viability ([1]; first compound 8 µM)	relative viability ([2]; first compound 0.08 µM)	relative viability ([2]; first compound 0.253 µM)	relative viability ([2]; first compound 0.8 µM)	relative viability ([2]; first compound 2.53 µM)	relative viability ([2]; first compound 8 µM)	relative viability ([3]; first compound 0.08 µM)	relative viability ([3]; first compound 0.253 µM)	relative viability ([3]; first compound 0.8 µM)	relative viability ([3]; first compound 2.53 µM)	relative viability ([3]; first compound 8 µM)	relative viability ([4]; first compound 0.08 µM)	relative viability ([4]; first compound 0.253 µM)	relative viability ([4]; first compound 0.8 µM)	relative viability ([4]; first compound 2.53 µM)	relative viability ([4]; first compound 8 µM)
HOP-62	0.606	0.59	0.688	0.594	0.685	0.966	0.822	0.981	0.694	0.596	0.841	0.812	0.793	0.8	0.899	0.708	0.656	0.651	0.858	0.684
IA-LM	0.896	1.12	1.17	0.929	1.19															
LC-2-ad	0.798	0.715	0.728	0.698	0.64	1.18	1.09	1.19	1.24	1	0.975	0.786	0.824	0.809	0.676	0.856	0.607	0.679	0.586	0.404
LCLC-97TM1	0.741	0.604	0.734	0.722	0.63	0.821	0.795	0.952	0.993	0.709	0.673	0.522	0.525	0.507	0.523	1.1	0.763	0.756	0.838	0.639
LCLC-103H	0.89	0.795	0.806	0.735	0.675	1.1	0.925	0.898	0.947	0.718	0.462	0.461	0.364	0.476	0.476	0.418	0.525	0.31	0.474	0.513
LK-2	0.265	0.26	0.254	0.287	0.209	0.18	0.182	0.149	0.205	0.181	0.264	0.187	0.181	0.182	0.226	0.269	0.26	0.273	0.352	0.38
LOU-NH91	0.864	0.886	0.952	0.897	0.917	0.431	0.366	0.319	0.345	0.279	0.777	0.689	0.673	0.693	0.709	0.571	0.489	0.567	0.55	0.584
LU99A	0.537	0.482	0.542	0.416	0.426	0.274	0.261	0.241	0.199	0.194	0.35	0.271	0.24	0.278	0.287	0.552	0.562	0.551	0.571	0.303
LXF-289	0.744	0.818	0.793	0.714	0.705	0.766	0.671	0.52	0.82	0.616	0.764	0.764	0.795	0.823	0.59	0.235	0.247	0.195	0.223	0.155
NCI-H23	0.668	0.628	0.763	0.642	0.43	0.202	0.223	0.214	0.236	0.213	0.745	0.742	0.599	0.464	0.438	0.881	0.746	0.78	0.603	0.283
NCI-H322M	0.951	1.01	1.05	1.3	1.4	0.958	0.87	0.632	0.4	0.266	0.677	0.522	0.486	0.525	0.537	0.255	0.264	0.248	0.301	0.268
NCI-H358	0.624	0.645	0.673	0.509	0.417	0.62	0.307	0.334	0.537	1.49	0.775	0.711	0.8	0.807	0.853	0.157	0.156	0.183	0.209	0.213
NCI-H441	0.648	0.571	0.907	0.689	0.747	0.289	0.386	0.602	0.307	0.363	0.932	0.693	0.638	0.518	0.601	0.641	0.558	0.706	0.687	0.539
NCI-H1563						0.56	0.499	0.491	0.509	0.338	0.757	0.734	0.767	0.694	0.809	0.449	0.483	0.405	0.456	0.453
NCI-H1623						0.588	0.473	0.605	0.509	0.505	0.476	0.415	0.461	0.419	0.456	0.565	0.53	0.518	0.525	0.606
NCI-H1648	0.331	0.408	0.984	0.748	0.895						0.22	0.27	0.29	0.258	0.207					
NCI-H1792						0.462	0.524	0.367	0.506	0.359	0.766	0.75	0.606	0.679	0.623	0.981	0.89	0.731	0.851	0.727
